BindingDB's records for doi:10.1016/j.bmcl.2005.02.039 (National Institute of Pharmaceutical Education and Research …, 2005)

Experiment: Anti-oxidant activity in DPPH radicak scavenging assay; n=3-4

Point of comparison: Oc1ccc(/C=C/c2cc(/C=C/c3ccc(O)cc3)[nH]n2)cc1 [4-((E)-2-{3-[(E)-2-(4-hydroxyphenyl)vinyl]-1H-pyrazol-5-yl}vinyl)phenol], IC50 32.4 µM. Against it:
- COc1cc(/C=C/c2cc(/C=C/c3ccc(O)cc3)on2)ccc1O [4-((E)-2-{5-[(E)-2-(4-Hydroxy-phenyl)-vinyl]-isoxazol-3-yl}-vinyl)-2-methoxy-phenol] — 1.7-fold lower, 19 µM
- COc1cc(C=Cc2cc(C=Cc3ccc(O)cc3)n[nH]2)ccc1O [4-((E)-2-{5-[(E)-2-(4-Hydroxy-phenyl)-vinyl]-1H-pyrazol-3-yl}-vinyl)-2-methoxy-phenol] — 2.1-fold lower, 15.5 µM
